How the values were obtained:
[1] = test system: Gastric Secretion; assay: Effects on Gastric Secretion in the Rat; assay type: in vivo; settings: pylorus-ligated rat, subcutaneous, 2 x 1.5 mg/kg (total 3.0 mg/kg), 4 hours
Experimental: A procedure based on that described by Lipmann (J. Pharm. Pharmacol., 21:335 [1968]) was used to assess the influence of test compounds on gastric secretion. Rats of one sex weighing 150 to 200 g were randomly divided into groups of six animals each and fasted for 48 hours previously to the experiments, water being available adlibitum. The animals were anesthetized with ether, the abdomen was opened through a midline incision and the pylorus was ligated. Test compounds were diluted from stock solution so as to administer a dose of 1.5 mg/kg in a volume equivalent to 1 ml/kg. Subcutaneous injections were applied immediately after surgery and again 2 hours later, so that a total dose of 3.0 mg/kg was administered. Dilutions were made with phosphate buffer (pH 7.38) as recommended by Lee et al. (Prostaglandins 3:29 [1973]), in order to insure adequate stability of drugs at the subcutaneous depot. Each compound was tested in one group of rats; an additional control group received only the vehicle.
Four hours after pyloric ligation the animals were killed with ether, the cardias ligated and the stomachs removed. The volume of gastric secretion was measured and the contents centrifuged at 500 rpm for 10 minutes. Total acid in the supernatant was titrated against a 0.1 N sodium hydroxide solution and the amount expressed in mEq.
Volume and total acid values of the treated group were compared with those of the controls by the "T" test. Antisecretory activity was scored according to the following scale: […]

[2] = test system: Rat Uterus; assay: Effects on the Rat Uterus in Vitro; assay type: cell-based; settings: Rattus norvegicus; in vitro, 29° C; response 50% that of carbachol; read-out: Test F Rat Uterus, Activity Value (ED50)
Experimental: The uterine stimulant effect of test compounds was determined in segments of uterus obtained from rats (140-160 g) pretreated subcutaneously with 1 mg/kg of diethyl-stilbesterol 18 hours before the experiment. The tissues were placed in 10 ml chambers filled with de-Jalon solution at 29° C, were aerated and bubbled with 95% O2 and 5% CO2, and were prepared for isometric recording with force displacement transducers. Preparations were stretched to an initial tension of 1 g and were left undisturbed for 30 minutes. Carbachol (1 mcg/ml) was then added to the bath and a response was recorded. After a 10 minute interval the carbachol procedure was repeated. Responses to increasing concentrations of a test compound (0.001 to 10 mcg/ml with one log intervals) were then recorded every 10 minutes. Preparations were washed four times after each response. All doses of compounds were administered in a 0.1 ml volume. Because it has been observed that the magnitude of the second response to carbachol (approximately 10% greater than the first) is close to the maximal response of the tissue, such value was taken as a measure of the sensitivity of a particular segment. Responses to each concentration of the test compound were expressed in terms of percentage of the second response to carbachol and the ED50 (dose producing a response 50% that of carbachol) was calculated graphically. Activity was scored according to the following scale: […]

[3] = test system: Blood Pressure and Heart Rate; assay: Effects on Blood Pressure and Heart Rate in the Anesthetized Cat; assay type: in vivo; settings: Felis catus, intravenous, 0.01 to 10.0 mcg/kg, scored only on hypotension, read-out: Test D Activity Value (ED50 mmHg, decrease in blood pressure);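 also: Anesthetized cats given intravenous doses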
Experimental: The acute effects of test compounds on blood pressure and heart rate were determined in cats of either sex anesthetized with a mixture of pentobarbital sodium (35 mg/kg, i.v.) and barbital sodium (100 mg/kg, i.v.). Cannulas were placed in the trachea to allow adequate spontaneous ventilation, in a femoral artery for blood pressure recording with a strain gage transducer, and in a saphenous vein for drug administration. Heart rate was recorded by means of a cardiotachometer driven by the R wave of the electrocardiogram. After a period of 10 minutes of stable recordings of blood pressure and heart rate, the test compound was administered intravenously at doses increasing from 0.01 to 10.0 mcg/kg, spaced one log and injected at 10 minutes intervals. All doses were injected in a volume of 0.1 ml/kg. Modifications of blood pressure and heart rate induced by the test compound were expressed both in absolute units (mmHg and beats/minutes) and as percent of values recorded immediately before administration of each dose. Biphasic responses were tabulated in the order in which they occur. The direction of the observed changes was also noted (+ for increases and - for decreases).
Activity of compounds in this test was judged only on the basis of the degree of hypotension observed. Thus, the ED50 mmHg (dose decreasing blood pressure by 50 mmHg) was calculated graphically and the compound scored according to the following scale: […]

[4] = test system: rat colon; assay: Cascade Assay, colon (smooth muscle stimulant effect); assay type: cell-based; settings: superfused, 50% of maximum (PGF2α)
Experimental: (§1) The smooth muscle stimulant effects of test compounds were determined simultaneously in four different tissues that are known to be reactive to naturally occurring prostaglandins. Segments of rat stomach fundus, rat colon, chick rectum and rabbit aortic strip were obtained as described by: Vane, J. R., Brit. J. Pharmacol., 12: 344 (1957); Regoli, D. and Vane, J. R., Brit. J. Pharmacol., 23: 351 (1964); Mann, M. and West, G. B., Brit. J. Pharmacol., 5: 173 (1950); and Furchgott, R. F. and Bhadrakom, R., J. Pharmacol. Exper. Ther., 108: 129 (1953). One end of each preparation was tied to the bottom of a 10 ml tissue chamber and the other to a force displacement transducer (Grass FT-03) for continuous tension recording. The stomach, colon, and rectum segments were stretched to an initial tension of 1 g, while the aortic strip was subjected to 4 g. All preparations were left undisturbed for 1 hour prior to testing. The chambers were equipped with an external jacket through which water, maintained at 40° C, was circulated. Preparations were arranged one beneath the other in descending order (aorta, stomach, colon and rectum). Provision was made for bathing the four tissues successively so that they were superfused with the same fluid (Gaddum, H. J., Brit. J. Pharmacol., 6: 321 [1953]. The bathing fluid consisted of: Krebs bicarbonate solution aerated with a mixture of 95% O2 and 5% CO2 and warmed at 37° C; atropine sulphate (0.1 mcg/ml), phenoxybenzamine hydrochloride (0.1 mcg/ml), propranolol hydrochloride (3.0 mcg/ml), methysergide maleate (0.2 mcg/ml) and brompheniramine maleate (0.1 mcg/ml) were added to eliminate the possibility of smooth muscle responses being due to stimulation of cholinergic, adrenergic, serotonin or histamine receptors. The fluid was circulated by means of a roller pump and was allowed to drip over the preparations at a rate of 10 ml/minute.
(§2) Test compounds were diluted from stock solutions so as to administer quantities ranging from 0.001 100,000 ng in a volume of 0.5 ml. The compounds were applied by dripping on the uppermost tissue, at intervals of 10 to 20 minutes. Maximal increases in tension after each dose were measured and the results were used to plot dose-response curves. ED50 data (doses necessary to produce a response 50% of maximum) were then calculated graphically for each tissue.
(§3) Activity in each tissue was scored according to the following scale: […]

[5] = test system: Femoral Blood Flow; assay: Effects on Femoral Blood Flow in the Dog; assay type: in vivo; settings: anesthetized mongrel dog, intraarterial, 0.001 to 10 mcg
Experimental: The peripheral vasodilator or constrictor effects of these compounds were determined in mongrel dogs of either sex, weighing between 10 and 20 kg anesthestized intravenously with 35 mg/kg of sodium pentobarbital. An external iliac artery was dissected immediately above the femoral arch for a length of approximately 5 cm and a previously calibrated, non-connulating electromagnetic flowmeter sensor with a lumen between 2.5 and 3.5 mm was placed snugly around the vessel. Cannulas were placed in a branch of the artery arising distally to the location of the flowmeter sensor for intraarterial drug administrations, in the contralateral femoral artery for systemic blood pressure recordings and in the trachea for artificial respiration with room air. Femoral blood flow and systemic blood pressure were continously recorded with an electromagnetic flowmeter and pressure tranducer, respectively.
After an adequate control period, test compounds were injected intraarterially at one log-spaced doses ranging from 0.001 to 10 mcg., in a volume of 0.5 ml and at 5 to 10 minute intervals. Maximum changes in bloodflow, as well as any variations in blood pressure, were tabulated for each dose in absolute values (ml/min. and mmHg). The calculations were made taking as control values those existing immediately before administration of each dose. The direction of the observed change (plus for increase and minus for decrease) was also noted. The dose changing bloodflow by 100 ml/min (ED100 ml/min) was calculated graphically and was used for scoring activity as follows: […]

[6] = test system: rat stomach fundus; assay: Cascade Assay, stomach (smooth muscle stimulant effect); assay type: cell-based; settings: superfused, 50% of maximum (PGE1)
Experimental: as §1, §2, §3

[7] = test system: chick rectum; assay: Cascade Assay, rectum (smooth muscle stimulant effect); assay type: cell-based; settings: superfused, 50% of maximum (PGE1)
Experimental: as §1, §2, §3

[8] = test system: rabbit aortic strip; assay: Cascade Assay, aorta (smooth muscle stimulant effect); assay type: cell-based; settings: superfused, 50% of maximum (PGA2)
Experimental: as §1, §2, §3

[9] = test system: steroidogenesis in the adrenal glands; settings: hypophysectomized rats; cited from earlier work

Row | Structure (SMILES) | Test B Activity Value (% decrease in acidity, inhibition of gastric secretion) [1] | EC50 [2] [µg/mL] | ED (50 mmHg) [3] [mg/kg] | Test E Cascade Assay, Colon, Activity Value (ED50) [4] | Test C Activity Value (ED100 ml/min, increase in femoral blood flow) [5] | Test E Cascade Assay, Stomach, Activity Value (ED50) [6] | Test E Cascade Assay, Rectum, Activity Value (ED50) [7] | Test E Cascade Assay, Aorta, Activity Value (ED50) [8] | steroidogenesis in the adrenal glands [9]
1 | O=C(O)CCCCCC[C@H]1C(=O)CC[C@@H]1/C=C/[C@@H](O)C1CC2(CCC2)C1 (relative stereo) [TR-4136, dl 7-{5-oxo-2R-[3S-hydroxy-3-(spiro[3.3]hept-2-yl)-1E-propenyl]cyclopent-1R-yl}heptanoic acid] | 1 (26-50, not significant) | > 10 | > 0.01 | 0 (>10000) | 0 (>10.0) | 2 (101 - 1000) | 1 (1001 - 10000) | 0 (>10000) | 
2 | O=C(O)CCC/C=C\C[C@H]1C(=O)CC[C@@H]1/C=C/[C@H](O)C1CC2(CCC2)C1 (relative stereo) [TR-4147, dl 7-{5-oxo-2R-[3R-hydroxy-3-(spiro[3.3]hept-2-yl)-1E-propenyl]cyclopent-1R-yl}hept-5Z-enoic acid] | 0 (<26) | > 10 | 0.00011 to 0.001 | 0 (>10000) | 0 (>10.0) | 2 (101 - 1000) | 2 (101 - 1000) | 1 (1001 - 10000) | 
3 | CCCCC[C@H](O)/C=C/[C@@H]1[C@@H](CCCCCCC(=O)O)[C@@H](O)C[C@H]1O [PGF1α] |  |  |  |  |  |  |  |  | stimulate steroidogenesis in the adrenal glands
4 | COC(=O)CCCCCC[C@H]1C(=O)C[C@@H](O)[C@@H]1/C=C/[C@@H](O)C1CC2(CCC2)C1 [TR-4121, Methyl 7-{3R-hydroxy-5-oxo-2R-[3S-hydroxy-3-(spiro[3.3]hept-2-yl)-1E-propenyl]cyclopent-1R-yl}heptanoate] | 1 (26-50, not significant) | > 10 | > 0.01 | 0 (>10000) | 2 (0.11 - 1.0) | 0 (>10000) | 0 (>10000) | 0 (>10000) | 
5 | COC(=O)CCCCCC[C@@H]1[C@@H](/C=C/[C@@H](O)C2CC3(CCC3)C2)[C@H](O)C[C@@H]1O [TR-4139, Methyl 7-{3R,5S-dihydroxy-2R-[3S-hydroxy-3-(spiro[3.3]hept-2-yl)-1E-propenyl]cyclopent-1R-yl}heptanoate] | 0 (<26) | > 10 | > 0.01 | 0 (>10000) | 0 (>10.0) | 0 (>10000) | 0 (>10000) | 0 (>10000) | 

From patent publication US4098823A, “Monospiroalkyl derivatives of prostaglandins” (Miles Laboratories, Inc., priority 1977, dated 1978)
